The results in this text go back to ChEMBL document CHEMBL4130488, “Synthesis and biological evaluation of novel non-racemic indole-containing allocolchicinoids” (Eur J Med Chem, 2017).

Calls of active or inactive are those of the source. The rule behind the calls is not given here.

For data set [1], the system named is MIA PaCa-2. As to the kind of experiment: Cytotoxic activity in human MIAPaCa2 cells assessed as reduction in cell viability incubated for 72 hrs by MTT assay. Format: functional, cell-based. To be noted: MIA PaCa-2, 72 h.
In data set [2] the test system is HEK293. In words: Cytotoxic activity in HEK293 cells assessed as reduction in cell viability incubated for 72 hrs by MTT assay. Format: cell-based. To be noted: Homo sapiens, HEK293, 72 h.
Data set [3] relates to COLO357. As to the kind of experiment: Growth inhibition of human Colo-357 cells incubated for 72 hrs by MTT assay. The data set is classed as functional.
The species named for data set [4] is Homo sapiens. As to the kind of experiment: Inhibition of beta tubulin assembly in human Colo-357 cells at 5 uM incubated for 24 hrs by anti-tubulin antibody based confocal microscopy. Format: cell-based.
The subject of data set [5] is COLO357. In words: Induction of apoptosis in human Colo-357 cells at 5 uM incubated for 72 hrs by propidium iodide staining based flow cytometry (reference value: 12.4%). The data set is classed as functional.
Data set [6] has as its system COLO357. In words: Induction of cell cycle arrest in human Colo-357 cells assessed as accumulation at G phase at 5 uM incubated for 72 hrs by propidium iodide staining based flow cytometry (reference value: 56.6%). The data set is classed as functional.
For data set [7], the system named is COLO357. As to the kind of experiment: Cytotoxic activity in human Colo-357 cells assessed as reduction in cell viability incubated for 72 hrs by MTT assay. To be noted: COLO357, 72 h. Format: functional, cell-based.
Data set [8] has as its system COLO357. As to the kind of experiment: Induction of cell cycle arrest in human Colo-357 cells assessed as accumulation at […] phase at 5 uM incubated for 72 hrs by propidium iodide staining based flow cytometry (reference value: 1.8%). Format: functional.
Data set [9] concerns COLO357. As to the kind of experiment: Induction of cell cycle arrest in human Colo-357 cells assessed as accumulation at G2/M phase at 5 uM incubated for 72 hrs by propidium iodide staining based flow cytometry (reference value: 31%). Format: functional.
A short description of data set [10]: Gastrointestinal toxicity in human HT-29 cells assessed as effect on EPR at 5 uM incubated for 3 hrs by flow cytometry. The data set is classed as cell-based. Particulars: ht-29, 3 h.
Data set [11] is described as follows: Gastrointestinal toxicity in human HT-29 cells assessed as increase in mitochondrial membrane potential at 5 uM incubated for 3 hrs by flow cytometry. Format: cell-based. To be noted: ht-29, 3 h.
Data set [12] is described as follows: Gastrointestinal toxicity in human HT-29 cells assessed as effect on membrane integrity at 5 uM incubated for 3 hrs by flow cytometry. The data set is classed as cell-based. Particulars: ht-29, 3 h.
Data set [13] in a line: Gastrointestinal toxicity in human HT-29 cells assessed as relocation from perinuclear position to cytoplasm at 5 uM incubated for 3 hrs by flow cytometry. To be noted: ht-29, 3 h. Format: cell-based.
The nature of data set [14]: Gastrointestinal toxicity in human HT-29 cells assessed as increase in mitochondrial number at 5 uM incubated for 3 hrs by flow cytometry. The data set is classed as cell-based. Particulars: ht-29, 3 h.
A short description of data set [15]: Gastrointestinal toxicity in human HT-29 cells assessed as lysosomal membrane potential at 5 uM incubated for 3 hrs by flow cytometry. The data set is classed as cell-based. Particulars: ht-29, 3 h.
The nature of data set [16]: Gastrointestinal toxicity in human HT-29 cells assessed as effect on golgi apparatus at 5 uM incubated for 3 hrs by flow cytometry. To be noted: ht-29, 3 h. The data set is classed as cell-based.
The nature of data set [17]: Gastrointestinal toxicity in human HT-29 cells assessed as effect on endosomes at 5 uM incubated for 3 hrs by flow cytometry. Format: cell-based. Particulars: ht-29, 3 h.
Data set [18] can be described thus: Gastrointestinal toxicity in human HT-29 cells assessed as mitochondrial stimulation at 5 uM incubated for 3 hrs by flow cytometry. Format: cell-based. To be noted: ht-29, 3 h.
Data set [19] has as its system PANC-1. As to the kind of experiment: Cytotoxic activity in human PANC1 cells assessed as reduction in cell viability at 0.1 to 100000 nM incubated for 24 hrs by MTT assay. Format: functional, cell-based.
In data set [20] the test system is HT-29. As to the kind of experiment: Cytotoxic activity in human HT-29 cells assessed as reduction in cell viability at 0.1 to 100000 nM incubated for 24 hrs by MTT assay. Format: functional, cell-based.
Data set [21] deals with COLO357. In words: Induction of mitochondrial changes in human Colo-357 cells at 5 uM incubated for 3 hrs by flow cytometry. The data set is classed as functional, cell-based.
The species named for data set [22] is Homo sapiens. As to the kind of experiment: Inhibition of beta tubulin assembly in human Colo-357 cells at 5 uM incubated for 3 hrs by anti-tubulin antibody based confocal microscopy. Format: cell-based.
Data set [23] deals with HEK293. As to the kind of experiment: Cytotoxic activity in HEK293 cells assessed as reduction in cell viability at 0.1 to 100000 nM incubated for 24 hrs by MTT assay. Format: cell-based. Particulars: human, hek293, 24 h, 100 µM.

Take `COc1c(Br)c2c(c(OC)c1OC)-c1cc3cc(CO)[nH]c3cc1[C@@H](NC(C)=O)CC2`: the IC50 in data set [1] (read-out: IC50) was found to be 10 nM; in [2], 160 nM; in data set [7] (read-out: IC50), 3.5 nM. In addition, the “growth inhibition (GI)” value in data set [3] is given as 60 - 80%. Further, in data set [4], the inhibition result is “Active”. The Activity in data set [5] was found to be 23%; in [6], 16%; in [8], 0.3%; in data set [9], 61%.
Take `COc1cc2c(c(OC)c1OC)-c1ccc(OC)c(=O)cc1[C@@H](NC(C)=O)CC2` [COLCHICINE]: the IC50 in [1] was found to be 1.3 nM; in [2], 32 nM; in data set [7], 1.3 nM. Besides, the Activity entry was “Non-Toxic” in data set [10]; “Toxic” in data set [11]; “Non-Toxic” in data set [12]; “Toxic” in [13]; “Toxic” in data set [14]; “Toxic” in data set [15]. Moreover, the Activity in data set [5] is 12.4%; in data set [6] it was 12.6%; in data set [16], “Non-Toxic”; in [8], 0.2%; in data set [9], 75%; in [17] it was “Non-Toxic”. Further, the “growth inhibition (GI)” value in [3] is 60 - 80%. For the same compound, in data set [4], the inhibition result was “Active”.
Regarding `COc1c(Br)c2c(c(OC)c1OC)-c1cc3cc(CO)n(C)c3cc1[C@@H](NC(C)=O)CC2`, the IC50 in [1] (read-out: IC50) is < 0.1 nM; in data set [2] it was 6.4 nM; in [7] (read-out: IC50), 0.3 nM. Besides, the Activity entry in data set [10] is reported as “Non-Toxic”; in data set [18], “Non-Toxic”; in [12] it was “Non-Toxic”; in data set [15] it was “Non-Toxic”; in data set [5], 25%; in data set [6] it was 12%. The Activity entry is “Non-Toxic” in data set [16]; 0.2% in data set [8]; 63% in [9]; “Non-Toxic” in [23]; “Non-Toxic” in data set [17]. The outcome in data set [19] was inactive. Besides, in data set [3], the “growth inhibition (GI)” value is on record as 60 - 80%. Moreover, the outcome in [20] and in data set [21] was Active. Further, the inhibition entry in data set [4] and in data set [22] was “Active” each time.
